According to PubChem BioAssay (NCI):
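Briefly, cells in 96-well plates were exposed to five compound concentrations for 48 h, and endpoints were estimated by linear interpolation. Definition used: TGI = concentration required for complete inhibition of growth.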

What was measured:
Experiment in all cases: NCI anticancer screen, dose series, 48 h
[1] = tested on: 786-0 renal
[2] = tested on: A549 NSCLC
[3] = tested on: ACHN renal
[4] = tested on: CCRF-CEM leukemia
[5] = tested on: COLO 205 colon
[6] = tested on: DLD-1 colon
[7] = tested on: DMS 114 small cell lung
[8] = tested on: DMS 273 small cell lung
[9] = tested on: HCC-2998 colon
[10] = tested on: HCT-116 colon
[11] = tested on: HL-60(TB) leukemia
[12] = tested on: HOP-18 NSCLC
[13] = tested on: HOP-92 NSCLC
[14] = tested on: HT29 colon
[15] = tested on: IGROV1 ovarian
[16] = tested on: K-562 leukemia
[17] = tested on: KM12 colon
[18] = tested on: KM20L2 colon
[19] = tested on: LOX IMVI melanoma
[20] = tested on: LXFL 529 NSCLC
[21] = tested on: M14 melanoma
[22] = tested on: M19-MEL melanoma
[23] = tested on: MOLT-4 leukemia
[24] = tested on: NCI-H23 lung
[25] = tested on: NCI-H460 lung
[26] = tested on: NCI-H522 lung
[27] = tested on: OVCAR-3 ovarian
[28] = tested on: OVCAR-4 ovarian
[29] = tested on: OVCAR-5 ovarian
[30] = tested on: RPMI-8226 leukemia
[31] = tested on: RXF 393 renal
[32] = tested on: SF-268 CNS
[33] = tested on: SF-295 CNS
[34] = tested on: SF-539 CNS
[35] = tested on: SK-MEL-2 melanoma
[36] = tested on: SK-MEL-5 melanoma
[37] = tested on: SK-OV-3 ovarian
[38] = tested on: SN12C renal
[39] = tested on: SNB-19 CNS
[40] = tested on: SNB-75 CNS
[41] = tested on: SR leukemia
[42] = tested on: SW-620 colon
[43] = tested on: U251 CNS
[44] = tested on: UACC-257 melanoma
[45] = tested on: UACC-62 melanoma
[46] = tested on: UO-31 renal
[47] = tested on: XF 498 CNS
[48] = tested on: A498 renal
[49] = tested on: CAKI-1 renal
[50] = tested on: EKVX NSCLC
[51] = tested on: HCT-15 colon
[52] = tested on: HOP-62 NSCLC
[53] = tested on: MALME-3M melanoma
[54] = tested on: NCI-H226 lung
[55] = tested on: OVCAR-8 ovarian
[56] = tested on: SK-MEL-28 melanoma
[57] = tested on: SNB-78 CNS
[58] = tested on: TK-10 renal
[59] = tested on: BT-549 breast
[60] = tested on: DU-145 prostate
[61] = tested on: HS 578T breast
[62] = tested on: MCF7 breast
[63] = tested on: MDA-MB-231 breast
[64] = tested on: MDA-MB-435
[65] = tested on: MDA-N
[66] = tested on: NCI/ADR-RES ovarian
[67] = tested on: PC-3 prostate
[68] = tested on: T-47D breast

With `CC(C)C(=O)/C=C/c1ccc(Cl)cc1` the TGI [1] was 23.1 µM, the TGI [2] was 59.7 µM and the TGI [3] was 28.5 µM. It also gave a TGI [4] of 51.7 µM, a TGI [5] of 59.9 µM and a TGI [6] of 32.2 µM. It also gave a TGI [7] of 39.8 µM, a TGI [8] of 14 µM and a TGI [9] of 31.9 µM. It also gave a TGI [10] of 11.5 µM, a TGI [11] of 28.8 µM and a TGI [12] of 13.8 µM. It also gave a TGI [13] of 31.6 µM, a TGI [14] of 31.7 µM and a TGI [15] of 46.3 µM. The TGI [16] was 15.6 µM, the TGI [17] was 23.8 µM and the TGI [18] was over 100 µM. For the same molecule, the TGI [19] was 22.2 µM, the TGI [20] was 30.4 µM and the TGI [21] was 33 µM. It also gave a TGI [22] of 29.6 µM, a TGI [23] of 55.9 µM and a TGI [24] of 44.7 µM. The TGI [25] was 42.3 µM, the TGI [26] was 30.4 µM and the TGI [27] was 28 µM. It also gave a TGI [28] of 52.3 µM, a TGI [29] of 35.4 µM and a TGI [30] of 67.2 µM. It also gave a TGI [31] of 35.5 µM, a TGI [32] of 67.5 µM and a TGI [33] of 27.8 µM. For the same molecule, the TGI [34] was 22.6 µM, the TGI [35] was 35.4 µM and the TGI [36] was 21.7 µM. The TGI [37] was over 100 µM, the TGI [38] was 21.7 µM and the TGI [39] was 28.1 µM. For the same molecule, the TGI [40] was 33.4 µM, the TGI [41] was 26.2 µM and the TGI [42] was 16.3 µM. The TGI [43] was 25.5 µM, the TGI [44] was 40.6 µM and the TGI [45] was 36.4 µM. For the same molecule, the TGI [46] was 24.5 µM and the TGI [47] was 20.5 µM.
`C=C(CS(=O)(=O)c1ccccc1)[P+](c1ccccc1)(c1ccccc1)c1ccccc1` was tested, and the TGI [1] was 47.3 µM, the TGI [48] was over 100 µM and the TGI [2] was over 100 µM. The TGI [3] was 53.1 µM, the TGI [49] was 65.9 µM and the TGI [4] was 25 µM. It also gave a TGI [6] of over 100 µM, a TGI [7] of 58.7 µM and a TGI [8] of 33.4 µM. The TGI [50] was over 100 µM, the TGI [9] was 47.2 µM and the TGI [10] was 25.2 µM. It also gave a TGI [51] of over 100 µM, a TGI [11] of 32.6 µM and a TGI [52] of 90 µM. The TGI [13] was 65.6 µM, the TGI [14] was 37.3 µM and the TGI [15] was 68.4 µM. It also gave a TGI [16] of 31.7 µM, a TGI [17] of 29 µM and a TGI [18] of 32.8 µM. It also gave a TGI [19] of 30 µM, a TGI [21] of 39.4 µM and a TGI [22] of 50.4 µM. It also gave a TGI [53] of 38.3 µM, a TGI [23] of 39.6 µM and a TGI [54] of 36.7 µM. For the same molecule, the TGI [24] was 62.7 µM, the TGI [25] was 66 µM and the TGI [26] was 44.1 µM. For the same molecule, the TGI [27] was 37.9 µM, the TGI [28] was over 100 µM and the TGI [29] was over 100 µM. For the same molecule, the TGI [55] was 74.1 µM, the TGI [30] was 11.4 µM and the TGI [31] was 38.4 µM. The TGI [32] was 29.6 µM, the TGI [33] was 50 µM and the TGI [34] was 78.2 µM. It also gave a TGI [35] of over 100 µM, a TGI [56] of 25.5 µM and a TGI [36] of 29.1 µM. For the same molecule, the TGI [37] was 81.6 µM, the TGI [38] was 32.4 µM and the TGI [39] was over 100 µM. For the same molecule, the TGI [40] was 67.3 µM, the TGI [57] was over 100 µM and the TGI [42] was 51.1 µM. It also gave a TGI [58] of 92.4 µM, a TGI [44] of 22.2 µM and a TGI [45] of 56.9 µM. It also gave a TGI [46] of 94.3 µM and a TGI [47] of 28.9 µM.
For `CSc1ccc2c(cc1=O)C(NC(=O)c1ccc(OC(C)=O)cc1)CCc1cc(O)c(O)c(O)c1-2` (centres undefined), the TGI [1] was over 100 µM, the TGI [48] was over 100 µM and the TGI [2] was over 100 µM. For the same molecule, the TGI [3] was over 100 µM, the TGI [4] was over 100 µM and the TGI [5] was 30.8 µM. It also gave a TGI [6] of 35.8 µM, a TGI [7] of 52.4 µM and a TGI [8] of 47.1 µM. The TGI [50] was 44 µM, the TGI [9] was over 100 µM and the TGI [10] was 31.1 µM. For the same molecule, the TGI [51] was 34.9 µM, the TGI [11] was 21.9 µM and the TGI [52] was over 100 µM. For the same molecule, the TGI [14] was 37.9 µM, the TGI [16] was 7.53 µM and the TGI [17] was over 100 µM. For the same molecule, the TGI [18] was over 100 µM, the TGI [20] was 35.2 µM and the TGI [21] was 30.7 µM. It also gave a TGI [22] of 29.2 µM, a TGI [53] of over 100 µM and a TGI [23] of 28.9 µM. The TGI [54] was 50.8 µM, the TGI [24] was 67.7 µM and the TGI [25] was 50.4 µM. The TGI [26] was 28.8 µM, the TGI [27] was 44.5 µM and the TGI [28] was 22 µM. It also gave a TGI [29] of 78 µM, a TGI [55] of 60.2 µM and a TGI [32] of over 100 µM. It also gave a TGI [33] of 35.3 µM, a TGI [34] of 40.1 µM and a TGI [35] of 49.7 µM. The TGI [56] was over 100 µM, the TGI [36] was 31.5 µM and the TGI [37] was 98.1 µM. For the same molecule, the TGI [38] was 31.6 µM, the TGI [39] was over 100 µM and the TGI [40] was 55.6 µM. It also gave a TGI [57] of over 100 µM, a TGI [41] of 35.3 µM and a TGI [42] of 29.5 µM. It also gave a TGI [58] of over 100 µM, a TGI [43] of 39 µM and a TGI [44] of 38.9 µM. The TGI [45] was 36.3 µM and the TGI [46] was over 100 µM.
Molecule `CC(=O)OC(C)(C)N=Nc1ccc(Br)cc1` has a TGI [1] of over 100 µM, a TGI [48] of over 100 µM and a TGI [2] of over 100 µM. It also gave a TGI [3] of 23.1 µM, a TGI [59] of over 100 µM and a TGI [49] of 48.3 µM. For the same molecule, the TGI [4] was over 78.5 µM, the TGI [5] was 1.03 µM and the TGI [60] was over 100 µM. The TGI [50] was over 100 µM, the TGI [9] was over 100 µM and the TGI [10] was over 100 µM. For the same molecule, the TGI [51] was over 100 µM, the TGI [11] was 28 µM and the TGI [52] was over 100 µM. For the same molecule, the TGI [13] was 67.6 µM, the TGI [61] was over 100 µM and the TGI [14] was over 100 µM. The TGI [15] was over 100 µM, the TGI [16] was 21.4 µM and the TGI [17] was over 100 µM. For the same molecule, the TGI [19] was 33.7 µM, the TGI [21] was over 100 µM and the TGI [53] was over 100 µM. It also gave a TGI [62] of over 100 µM, a TGI [63] of over 100 µM and a TGI [64] of over 100 µM. The TGI [65] was over 100 µM, the TGI [23] was over 90.3 µM and the TGI [54] was over 50.5 µM. The TGI [24] was over 100 µM, the TGI [25] was 26 µM and the TGI [26] was 33.8 µM. It also gave a TGI [66] of 76.7 µM, a TGI [27] of over 100 µM and a TGI [28] of over 100 µM. For the same molecule, the TGI [29] was over 100 µM, the TGI [55] was 64.1 µM and the TGI [67] was over 100 µM. It also gave a TGI [30] of 36.2 µM, a TGI [31] of over 60.4 µM and a TGI [32] of over 100 µM. The TGI [33] was over 60.1 µM, the TGI [34] was over 100 µM and the TGI [35] was over 100 µM. It also gave a TGI [56] of over 100 µM, a TGI [36] of 6.26 µM and a TGI [37] of over 100 µM. The TGI [38] was over 100 µM, the TGI [39] was over 100 µM and the TGI [40] was over 91.5 µM. For the same molecule, the TGI [41] was 43.3 µM, the TGI [42] was over 100 µM and the TGI [68] was 44.4 µM. For the same molecule, the TGI [58] was over 87.9 µM, the TGI [43] was over 100 µM and the TGI [44] was 66.2 µM. The TGI [45] was over 100 µM and the TGI [46] was 15.9 µM.
